# Test results reported in PubChem BioAssay AID328 (DTP/NCI, 2004).
# “And” between values parts separate entries of the source, which are not always exact repeats. Identical values can stand only once. Inconclusive results and toxic doses are left out.
# Tested on: BDF1 mice, P388 leukemia ip, median survival T/C
# Test: NCI In Vivo Anticancer Drug Screen. Data for tumor model P388 Leukemia (intraperitoneal) in B6D2F1 (BDF1) mice
# Conditions: endpoint: median survival time, higher = longer survival
# Procedure, shortened: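 Transplantable tumour in mice; compound vs vehicle dosing; survival scored; ratio of treated to control reported.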
# [1] = dose: 100.0 mg/kg/injection, schedule: Q01DX009 (ip), vehicle: saline
# [2] = dose: 200.0 mg/kg/injection, schedule: Q01DX009 (ip), vehicle: saline
# [3] = dose: 100.0 mg/kg/injection, schedule: Q04DX003 (ip), vehicle: saline with Tween-80
# [4] = dose: 200.0 mg/kg/injection, schedule: Q04DX003 (ip), vehicle: saline with Tween-80
# [5] = dose: 400.0 mg/kg/injection, schedule: Q04DX003 (ip), vehicle: saline with Tween-80
structure (smiles),measurement,setting,value
CCCCCCCCCCCCCC(=O)O[C@@H]1[C@@H](C)[C@@]2(O)[C@@H](C=C(CO)C[C@]3(OC)C(=O)C(C)=C[C@@H]23)[C@@H]2C(C)(C)[C@]12OC(C)=O,T/C,"dose: 0.03 mg/kg/injection, schedule: Q01DX009 (ip), vehicle: saline + alcohol",91 % of control
same,T/C,"dose: 0.06 mg/kg/injection, schedule: Q01DX009 (ip), vehicle: Klucel (hydroxypropylcellulose) (HPC)",91 % of control
same,T/C,"dose: 0.06 mg/kg/injection, schedule: Q01DX009 (ip), vehicle: saline + alcohol",94 % of control
same,T/C,"dose: 0.12 mg/kg/injection, schedule: Q01DX009 (ip), vehicle: Klucel (hydroxypropylcellulose) (HPC)",94 % of control
same,T/C,"dose: 0.12 mg/kg/injection, schedule: Q01DX009 (ip), vehicle: saline + alcohol",117 % of control
same,T/C,"dose: 0.25 mg/kg/injection, schedule: Q01DX009 (ip), vehicle: Klucel (hydroxypropylcellulose) (HPC)",94 % of control
same,T/C,"dose: 0.25 mg/kg/injection, schedule: Q01DX009 (ip), vehicle: saline + alcohol",94 % of control
same,T/C,"dose: 0.5 mg/kg/injection, schedule: Q01DX009 (ip), vehicle: Klucel (hydroxypropylcellulose) (HPC)",110 % of control
same,T/C,"dose: 0.5 mg/kg/injection, schedule: Q01DX009 (ip), vehicle: saline + alcohol",107 % of control
same,T/C,"dose: 1.0 mg/kg/injection, schedule: Q01DX009 (ip), vehicle: Klucel (hydroxypropylcellulose) (HPC)",94 % of control
same,T/C,"dose: 1.0 mg/kg/injection, schedule: Q01DX009 (ip), vehicle: saline + alcohol",100 % of control
same,T/C,"dose: 3.1 micrograms/kg/injection, schedule: Q01DX009 (ip), vehicle: gum acacia",106 % of control
same,T/C,"dose: 3.1 micrograms/kg/injection, schedule: Q01DX009 (ip), vehicle: saline + alcohol",94 % of control
same,T/C,"dose: 3.1 micrograms/kg/injection, schedule: Q01DX009 (ip), vehicle: saline with Tween-80",87 % of control
same,T/C,"dose: 6.2 micrograms/kg/injection, schedule: Q01DX009 (ip), vehicle: gum acacia",97 % of control
same,T/C,"dose: 6.2 micrograms/kg/injection, schedule: Q01DX009 (ip), vehicle: saline + alcohol",87 % of control
same,T/C,"dose: 6.2 micrograms/kg/injection, schedule: Q01DX009 (ip), vehicle: saline with Tween-80",97 % of control
same,T/C,"dose: 12.5 micrograms/kg/injection, schedule: Q01DX009 (ip), vehicle: gum acacia",87 % of control
same,T/C,"dose: 12.5 micrograms/kg/injection, schedule: Q01DX009 (ip), vehicle: saline + alcohol",94 % of control
same,T/C,"dose: 12.5 micrograms/kg/injection, schedule: Q01DX009 (ip), vehicle: saline with Tween-80",160 % of control
same,T/C,"dose: 25.0 micrograms/kg/injection, schedule: Q01DX009 (ip), vehicle: saline + alcohol",103 % of control
same,T/C,"dose: 25.0 micrograms/kg/injection, schedule: Q01DX009 (ip), vehicle: saline with Tween-80",103 % of control
same,T/C,"dose: 50.0 micrograms/kg/injection, schedule: Q01DX009 (ip), vehicle: gum acacia",122 % of control
same,T/C,"dose: 50.0 micrograms/kg/injection, schedule: Q01DX009 (ip), vehicle: saline + alcohol",101 % of control
same,T/C,"dose: 50.0 micrograms/kg/injection, schedule: Q01DX009 (ip), vehicle: saline with Tween-80",87 % of control
same,T/C,"dose: 100.0 micrograms/kg/injection, schedule: Q01DX009 (ip), vehicle: gum acacia",106 % of control
same,T/C,"dose: 100.0 micrograms/kg/injection, schedule: Q01DX009 (ip), vehicle: saline + alcohol",97 % of control
same,T/C,"dose: 100.0 micrograms/kg/injection, schedule: Q01DX009 (ip), vehicle: saline with Tween-80",122 % of control
same,T/C,"dose: 200.0 micrograms/kg/injection, schedule: Q01DX009 (ip), vehicle: gum acacia",113 % of control
same,T/C,"dose: 200.0 micrograms/kg/injection, schedule: Q01DX009 (ip), vehicle: saline + alcohol",97 % of control
same,T/C,"dose: 200.0 micrograms/kg/injection, schedule: Q01DX009 (ip), vehicle: saline with Tween-80",106 % of control
same,T/C,"dose: 400.0 micrograms/kg/injection, schedule: Q01DX009 (ip), vehicle: gum acacia",160 % of control
same,T/C,"dose: 400.0 micrograms/kg/injection, schedule: Q01DX009 (ip), vehicle: saline + alcohol",94 % of control
same,T/C,"dose: 400.0 micrograms/kg/injection, schedule: Q01DX009 (ip), vehicle: saline with Tween-80",94 % of control
same,T/C,"dose: 800.0 micrograms/kg/injection, schedule: Q01DX009 (ip), vehicle: gum acacia",94 % of control
same,T/C,"dose: 800.0 micrograms/kg/injection, schedule: Q01DX009 (ip), vehicle: saline + alcohol",106 % of control
same,T/C,"dose: 800.0 micrograms/kg/injection, schedule: Q01DX009 (ip), vehicle: saline with Tween-80",169 % of control
O=[N+]([O-])c1ccc(/C=C\S(=O)(=O)OCCCl)cc1,T/C,"dose: 3.12 mg/kg/injection, schedule: Q01DX005 (ip), vehicle: Klucel (hydroxypropylcellulose) (HPC)",115 % of control
same,T/C,"dose: 6.25 mg/kg/injection, schedule: Q01DX005 (ip), vehicle: Klucel (hydroxypropylcellulose) (HPC)",99 % of control
same,T/C,"dose: 12.5 mg/kg/injection, schedule: Q01DX005 (ip), vehicle: Klucel (hydroxypropylcellulose) (HPC)",114 % of control
CNC(=O)NC1C(O)C(CO)OC(OC)C1O (stereo not given),T/C,"dose: 100.0 mg/kg/injection, schedule: Q01DX001 (ip), vehicle: saline",118 % of control
same,T/C,"dose: 200.0 mg/kg/injection, schedule: Q01DX001 (ip), vehicle: saline",100 % of control
same,T/C,"dose: 400.0 mg/kg/injection, schedule: Q01DX001 (ip), vehicle: saline",104 % of control
CCOC(=O)/C=C(\C)Nc1cccc([N+](=O)[O-])c1,T/C,"dose: 25.0 mg/kg/injection, schedule: Q01DX009 (ip), vehicle: other",110 % of control
same,T/C,"dose: 50.0 mg/kg/injection, schedule: Q01DX009 (ip), vehicle: other",93 % of control
same,T/C,"dose: 100.0 mg/kg/injection, schedule: Q01DX009 (ip), vehicle: other",100 % of control
same,T/C,"dose: 200.0 mg/kg/injection, schedule: Q01DX009 (ip), vehicle: other",110 % of control
same,T/C,"dose: 400.0 mg/kg/injection, schedule: Q01DX009 (ip), vehicle: other",116 % of control
CCC(NC(N)=O)C(CC)NC(N)=O (stereo not given),T/C,"dose: 25.0 mg/kg/injection, schedule: Q01DX009 (ip), vehicle: saline with Tween-80",106 % of control
same,T/C,"dose: 50.0 mg/kg/injection, schedule: Q01DX009 (ip), vehicle: saline with Tween-80",120 % of control and 123 % of control
COc1cc2c(cc1OC)C1CNC(=O)C1C(c1ccccc1)C2 (stereo not given),T/C,"dose: 50.0 mg/kg/injection, schedule: Q01DX001 (ip), vehicle: Klucel (hydroxypropylcellulose) (HPC)",100 % of control
same,T/C,"dose: 100.0 mg/kg/injection, schedule: Q01DX001 (ip), vehicle: Klucel (hydroxypropylcellulose) (HPC)",95 % of control
same,T/C,"dose: 200.0 mg/kg/injection, schedule: Q01DX001 (ip), vehicle: Klucel (hydroxypropylcellulose) (HPC)",100 % of control
same,T/C,"dose: 400.0 mg/kg/injection, schedule: Q01DX001 (ip), vehicle: Klucel (hydroxypropylcellulose) (HPC)",96 % of control
NCC(=O)O,T/C,[1],95 % of control
same,T/C,"dose: 100.0 mg/kg/injection, schedule: Q04DX003 (ip), vehicle: saline",100 % of control
same,T/C,[2],104 % of control
same,T/C,"dose: 200.0 mg/kg/injection, schedule: Q04DX003 (ip), vehicle: saline",95 % of control
same,T/C,"dose: 400.0 mg/kg/injection, schedule: Q01DX009 (ip), vehicle: saline",95 % of control
same,T/C,"dose: 400.0 mg/kg/injection, schedule: Q04DX003 (ip), vehicle: saline",95 % of control
Cc1ccc2n[nH]nc2c1,T/C,"dose: 25.0 mg/kg/injection, schedule: Q01DX009 (ip), vehicle: Klucel (hydroxypropylcellulose) (HPC)",99 % of control
same,T/C,"dose: 50.0 mg/kg/injection, schedule: Q01DX009 (ip), vehicle: Klucel (hydroxypropylcellulose) (HPC)",111 % of control
same,T/C,"dose: 100.0 mg/kg/injection, schedule: Q01DX009 (ip), vehicle: Klucel (hydroxypropylcellulose) (HPC)",107 % of control
same,T/C,"dose: 200.0 mg/kg/injection, schedule: Q01DX009 (ip), vehicle: Klucel (hydroxypropylcellulose) (HPC)",102 % of control
Fc1ccc(C=Nc2cccc(Cl)c2)cc1,T/C,[3],108 % of control
same,T/C,[4],104 % of control
same,T/C,[5],108 % of control
COc1ccc(N/N=C(\C)C2(O)Cc3c(O)c4c(c(O)c3C(OC3CC(N)C(O)C(C)O3)C2)C(=O)c2c(OC)cccc2C4=O)cc1 (stereo not given),T/C,"dose: 1.73 mg/kg/injection, schedule: Q04DX003 (ip), vehicle: water",123 % of control
same,T/C,"dose: 4.8 mg/kg/injection, schedule: Q04DX003 (ip), vehicle: water",157 % of control
COc1cc(OC)c(OC)cc1/C=N/Nc1ccc(C(=O)O)cc1,T/C,[3],105 % of control
same,T/C,[4],100 % of control
same,T/C,[5],110 % of control
ClCCCCCCCCc1ccccc1,T/C,"dose: 12.5 mg/kg/injection, schedule: Q01DX009 (ip), vehicle: saline",102 % of control
same,T/C,"dose: 25.0 mg/kg/injection, schedule: Q01DX009 (ip), vehicle: saline",100 % of control
same,T/C,"dose: 44.0 mg/kg/injection, schedule: Q04DX003 (ip), vehicle: saline with Tween-80",122 % of control
same,T/C,"dose: 50.0 mg/kg/injection, schedule: Q01DX009 (ip), vehicle: saline",107 % of control
same,T/C,"dose: 66.0 mg/kg/injection, schedule: Q04DX003 (ip), vehicle: saline with Tween-80",100 % of control
same,T/C,[1],100 % of control
same,T/C,[3],118 % of control
same,T/C,[2],108 % of control
